Measurements reported in PubChem BioAssay AID2060483 (Molecular Pharmacology Branch, DTP, NCI, 2025).
Where “and” joins values, the source holds several entries; their conditions need not be identical. Equal entries are not always repeated.

System: K24384-001-R-PDC complex spheroids, viability
Assay: Anticancer human tumor K24384-001-R-PDC patient-derived pancreatic adenocarcinoma cell line growth inhibition [GQUAD]
Conditions: for viability, T/C: stronger effect = lower value
Excerpt: DNA G-quadruplex Stabilizer Agents in Combinations in Complex Spheroids
A high-throughput screen of multi-cell type tumor spheroids was designed to identify active combinations of DNA G-quadruplex stabilizer agents and targeted small molecules. Complex spheroids include a stromal component modeled by human endothelial cells (HUVEC) and fibroblasts modeled by human mesenchymal stem cells (MSCs). The concentration ranges selected for each drug and investigational agent were based upon clinically achievable concentrations if the clinical Cmax of the agent was known.
Compounds. The drugs and investigational agents: pidnarulex (CX-5461; NSC782164), APTO-253 (NSC789042), BRACO-19 (NSC847499), peposertib (NSC802822), ceralasertib (NSC780249), elimusertib (NSC800525), camonsertib (NSC841442), AZD-1390 (NSC803789), olaparib (NSC753686), talazoparib (NSC767125), ART-558 (NSC835418), sotorasib (NSC818433), MRTX-1133 (NSC836407), SN-38 (NSC673596), topotecan (NSC609699), etoposide (NSC141540), doxorubicin (NSC123127), gemcitabine (NSC613327), 5-fluorouracil (NSC19893), paclitaxel (NSC125973), vemurafenib (NSC761431), panobinostat (NSC761190), R-306465 (JNJ-16241199; NSC773264), adavosertib (NSC754352), TP-3654 (NSC805149), carboplatin (NSC241240), KSQ-4279 (NSC840948), and staurosporine (NSC755774) were obtained from the National Cancer Institute (NCI) Developmental Therapeutics Program Chemical Repository (34). The FDA-approved anticancer drug set is available from the NCI Developmental Therapeutics Program. […] The stock solutions were prepared in dimethyl sulfoxide (DMSO, Sigma-Aldrich, St. Louis, MO, cat. D2650) at 800-fold the tested concentration and stored at -70 degrees C prior to their use. All drugs and investigational agents were tested over a range starting from a high concentration at or near the clinical Cmax and decreasing in half-log increments. If the clinical Cmax for an agent had not been determined, the highest concentration tested was 10 microM.
2.3 Cell Culture. All cells were maintained in an incubator at 37 degrees C and 5% CO2 with 95% humidity. The PDC lines were cultured according to standard operating procedures established by the NCI PDMR. All PDCs were thawed and cultured in Matrigel-coated flasks prepared with a working solution of 1X Ham's F-12 nutrient mix, without supplementation (Invitrogen, cat. 11765054), 100 U/mL penicillin-streptomycin (Invitrogen, cat. 15140122), and 2.5% Matrigel (Corning Inc., cat. 354248) for the first three passages. The 857933-349-R-J2-PDC line was cultured in 6C/Colon 1B media, which includes advanced DMEM/F-12 (Thermo Fisher Scientific, cat. 12634028), 10 mM HEPES (Thermo Fisher Scientific, cat. 15630080), 1X GlutaMAX supplement (Thermo Fisher Scientific, cat. 35050061), 0.1 mg/mL primocin (InvivoGen, cat. ant-pm-2), 10% defined fetal bovine serum, heat inactivated (HyClone Laboratories Inc., cat. SH30070.03HI), 50% L-WRN conditioned media (ATCC, cat. CRL-3276), 1.25 mM N-Acetyl-L-cysteine (Sigma-Aldrich, cat. A9165), 10 mM nicotinamide (Sigma-Aldrich, cat. N0636), 1X B-27 supplement (Thermo Fisher Scientific, cat. 17504044), 1X N-2 supplement (Thermo Fisher Scientific, cat. 17502048), 10 microM Y-27632 dihydrochloride (Tocris Bioscience, cat. 1254), and 50 ng/mL human EGF recombinant protein (Thermo Fisher Scientific, cat. PHG0311). The 485176-168-R4-J1-PDC line was cultured in Panc media, which includes all 6C/Colon 1B media components plus 100 ng/mL human FGF-10 (Thermo Fisher Scientific, cat. 100-26), 500 nM SB-431542 (Selleckchem, cat. S1067), and gastrin (Tocris, cat. 3006).
[…]
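Also: spheroids exposed to compounds for seven days.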

Structure (SMILES)	viability, T/C (compound 0.0316 µM)	viability, T/C (compound 0.1 µM)	viability, T/C (compound 0.316 µM)	viability, T/C (compound 1 µM)	viability, T/C (compound 3.16 µM)	viability, T/C (compound 10 µM)	IC50 (curve of compound)	IC50 (compound alone, run of 02/20/2024)	IC50 (compound alone, run of 02/26/2024) [nM]	viability, T/C (compound 0.000999 µM)	viability, T/C (compound 0.00316 µM)	viability, T/C (compound 0.00999 µM)	viability, T/C (compound 0.0999 µM)
COc1cc(C2c3cc4c(cc3C(OC3OC5COC(C)OC5C(O)C3O)C3COC(=O)C23)OCO4)cc(OC)c1O (configuration not stated)	103% and 98.4% and 102%	98% (2×) and 98.4%	75.9% and 85.9% and 71.3%	48.9% and 52.9% and 48.6%	37.1% and 41.1% and 35.2%	30.8% and 35.4% and 31.2%	964 nM and 1320 nM and 884 nM						
COc1ccc([C@@H](O)c2cc(-c3ncnc4cc(N5CCOCC5)ccc34)c(F)cc2Cl)nn1	92.4% and 98.4% and 120%	99.1% and 95.7% and 103%	103% and 83.4% and 83.3%	72.3% and 65% and 84.7%	48.4% and 44.9% and 56%	29.8% and 22.7% and 35.5%	2660 nM and 2310 nM and 4740 nM						
COc1cccc2c1C(=O)c1c(O)c3c(c(O)c1C2=O)CC(O)(C(=O)CO)CC3OC1CC(N)C(O)C(C)O1 (configuration not stated)	96.8% and 80.5% and 92.1%	67.9% and 52.2% and 54.5%	38.1% and 41.2% and 43.5%	19.5% and 22.3% and 19.1%	7.67% and 6.06% and 6.27%	4.91% and 3.92% and 4.93%	201 nM and 144 nM and 161 nM						
COc1ncnc(C2CC2)c1-c1ncc2cnn(Cc3ccc(-c4nc(C(F)(F)F)cn4C(C)C)cc3)c2n1	90.9% and 94.8% and 89.7%	101% and 104% and 81.5%	100% and 102% and 101%	75.5% and 96.3% and 84.7%	109% and 103% and 87.2%	96.1% and 110% and 99.2%	> 10000 nM						
Cc1[nH]c2ccc(F)cc2c1-c1nc2c3cccnc3c3ncccc3c2[nH]1	109% [middle of 12 runs]	102% [middle of 12 runs]	99% [middle of 12 runs]		65.3% [middle of 12 runs]			> 10000 nM and 9080 nM	> 10000				
Cc1[nH]c2ccccc2c1CCNCc1ccc(/C=C/C(=O)NO)cc1	90% and 89.4% and 90.5%		6.17% and 6.7% and 5.53%				116 nM and 126 nM and 101 nM			103% and 120% and 118%	96.8% and 103% and 92.5%	92.9% and 110% and 98.1%	56.2% and 61% and 48.7%
Cc1cccc(N(C)C(=O)C2C(O)CCN2c2nc(C)cc(C(F)(F)F)c2C#N)c1 (configuration not stated)	111% and 106% and 99%	106% and 98% and 82%	122% and 102% and 99.9%	91.4% and 86.8% and 108%	115% and 88% and 114%	115% and 106% and 127%	> 10000 nM						
Cc1cnc(CNC(=O)c2c(=O)c3ccc(N4CCCN(C)CC4)nc3n3c2sc2ccccc23)cn1	82.8% [middle of 12 runs]	66.4% [middle of 12 runs]	50.4% [middle of 12 runs]	44.4% [middle of 12 runs]	34.6% [middle of 12 runs]								
Cn1ncnc1[C@H]1c2n[nH]c(=O)c3cc(F)cc(c23)N[C@@H]1c1ccc(F)cc1	79.5% and 80.1% and 87.8%		85.2% and 80.7% and 93.3%				> 316 nM			112% and 100% and 116%	106% and 95% and 96.9%	109% and 76.1% and 136%	88.6% and 88.1% and 99.9%
Nc1ccn(C2OC(CO)C(O)C2(F)F)c(=O)n1 (configuration not stated)	84.3% and 75.7% and 81.2%	63.9% and 51.3% and 63.6%	50% and 35.2% and 65.7%	34.6% and 28.7% and 32.3%	21.7% and 26.4% and 21.4%	15.8% and 21.2% and 19.7%	285 nM and 108 nM and 531 nM						
O=C(NO)c1cnc(N2CCN(S(=O)(=O)c3ccc4ccccc4c3)CC2)nc1	110% and 91.7% and 116%	81% and 99.9% and 83.9%	66.6% and 72.7% and 68.1%		0.26% and 0.27% and 0.09%	0.25% and 0.26% and 0.14%	431 nM and 571 nM and 420 nM						
O=C(c1cc(Cc2n[nH]c(=O)c3ccccc23)ccc1F)N1CCN(C(=O)C2CC2)CC1	104% and 98.6% and 94.7%	93.9% and 91.4% and 99.2%	113% and 98.2% and 86.2%	93.1% and 97.6% and 91%	101% and 72.5% and 91.1%	79.3% and 69.8% and 82.3%	> 10000 nM						
O=c1[nH]cc(F)c(=O)[nH]1	101% and 113% and 79.9%	71.8% and 95.1% and 98.7%	89.6% and 94.3% and 82.2%	54.9% and 55.5% and 54.3%	41.3% and 45.8% and 44.6%	45.5% and 56.4% and 37.8%	1640 nM and > 10000 nM and 1500 nM						
